Measured values taken from ChEMBL document CHEMBL5715949, “Discovery of a selective irreversible BMX inhibitor for prostate cancer” (ACS Chem Biol, 2013).
Calls of active or inactive are those of the source. The rule behind the calls is not given here.

How the values were obtained:
[1] = molecular target: Citron Rho-interacting kinase (Homo sapiens) (UniProt O14578); assay: Inhibition of CIT (unknown origin) assessed as remaining activity at 1 uM by Kinome scan method relative to control
[2] = Induction of cell cycle arrest in human RV-1 cells assessed as accumulation of cells at G2/M phase at 2.5 uM incubated for 5 days by propidium iodide staining based flow cytometric analysis (reference value: 11.4 %); type: functional; settings: time 5 day
[3] = molecular target: Serine/threonine-protein kinase pim-3 (Homo sapiens) (UniProt Q86V86); assay: Inhibition of PIM3 (unknown origin) assessed as remaining activity at 1 uM by Kinome scan method relative to control
[4] = tested on: Receptor-type tyrosine-protein kinase FLT3 (Homo sapiens), P36888 [N841I]; assay: Inhibition of FLT3 N841I mutant (unknown origin) assessed as remaining activity at 1 uM by Kinome scan method relative to control
[5] = tested on: RV-1; assay: Inhibition of MAPK signalling pathway in human RV-1 cells assessed as decrease in ERK1/2 phosphorylation at T202/204 residue at 2.5 uM incubated for 4 hrs by immunoblot analysis; type: cell-based
[6] = molecular target: cAMP-dependent protein kinase catalytic subunit PRKX (Homo sapiens) (UniProt P51817); assay: Inhibition of PRKX (unknown origin) assessed as remaining activity at 1 uM by Kinome scan method relative to control
cAMP-dependent protein kinase catalytic subunit PRKX (Homo sapiens), sequence (P51817 whole entry): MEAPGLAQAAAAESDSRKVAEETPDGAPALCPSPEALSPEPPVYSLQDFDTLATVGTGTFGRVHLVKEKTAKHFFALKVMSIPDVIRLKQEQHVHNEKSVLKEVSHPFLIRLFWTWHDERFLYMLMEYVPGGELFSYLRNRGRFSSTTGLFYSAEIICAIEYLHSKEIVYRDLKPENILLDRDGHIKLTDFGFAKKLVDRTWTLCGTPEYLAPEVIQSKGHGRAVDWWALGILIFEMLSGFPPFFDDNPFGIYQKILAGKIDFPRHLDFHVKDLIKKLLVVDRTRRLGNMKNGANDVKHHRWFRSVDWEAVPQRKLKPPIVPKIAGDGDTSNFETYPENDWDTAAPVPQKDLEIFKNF

[7] = tested on: VCaP; assay: Antiproliferative activity against human VCaP cells assessed growth inhibition incubated for 2 to 5 days by CellTiter-Glo assay; type: functional; settings: time 2-5 day
[8] = molecular target: RAC-gamma serine/threonine-protein kinase (Homo sapiens) (UniProt Q9Y243); assay: Inhibition of AKT3 (unknown origin) assessed as remaining activity at 1 uM by Kinome scan method relative to control
[9] = molecular target: Mitogen-activated protein kinase 8 (Homo sapiens) (UniProt P45983); assay: Inhibition of JNK1 (unknown origin) assessed as remaining activity at 1 uM by Kinome scan method relative to control
[10] = molecular target: MAP/microtubule affinity-regulating kinase 4 (Homo sapiens) (UniProt Q96L34); assay: Inhibition of MARK4 (unknown origin) assessed as remaining activity at 1 uM by Kinome scan method relative to control
MAP/microtubule affinity-regulating kinase 4 (Homo sapiens), sequence (Q96L34 whole entry): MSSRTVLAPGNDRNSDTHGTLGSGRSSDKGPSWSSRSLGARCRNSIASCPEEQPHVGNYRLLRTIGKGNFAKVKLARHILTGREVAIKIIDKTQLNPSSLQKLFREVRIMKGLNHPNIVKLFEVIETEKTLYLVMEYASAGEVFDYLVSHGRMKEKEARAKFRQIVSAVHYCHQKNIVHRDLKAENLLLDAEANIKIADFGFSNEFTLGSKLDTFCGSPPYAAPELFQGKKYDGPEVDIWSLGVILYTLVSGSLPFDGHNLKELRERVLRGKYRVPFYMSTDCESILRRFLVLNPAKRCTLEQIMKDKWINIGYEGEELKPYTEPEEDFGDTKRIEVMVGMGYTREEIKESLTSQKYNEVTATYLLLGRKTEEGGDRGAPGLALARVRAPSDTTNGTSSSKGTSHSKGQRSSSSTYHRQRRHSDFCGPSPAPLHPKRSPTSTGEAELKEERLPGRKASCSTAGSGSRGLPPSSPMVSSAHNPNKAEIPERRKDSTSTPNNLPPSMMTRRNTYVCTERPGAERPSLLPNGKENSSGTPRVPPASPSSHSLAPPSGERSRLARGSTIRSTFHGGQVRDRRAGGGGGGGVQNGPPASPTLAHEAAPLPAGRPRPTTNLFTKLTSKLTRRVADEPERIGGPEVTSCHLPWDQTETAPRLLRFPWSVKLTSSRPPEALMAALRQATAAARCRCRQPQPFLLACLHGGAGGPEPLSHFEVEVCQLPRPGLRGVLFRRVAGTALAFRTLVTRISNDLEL

[11] = Down regulation of BMX protein expression in human RV-1 cells expressing BMX C496S mutant assessed protein expression level at 2.5 uM pre incubated for 4 hrs followed by compound wash out and additon of CHX and measured after 16 hrs by immunoblot analysis (reference value: 1.01 to 1.13); type: functional
[12] = molecular target: Dual specificity testis-specific protein kinase 1 (Homo sapiens) (UniProt Q15569); assay: Inhibition of TESK1 (unknown origin) assessed as remaining activity at 1 uM by Kinome scan method relative to control
[13] = molecular target: RAC-alpha serine/threonine-protein kinase (Homo sapiens) (UniProt P31749); assay: Inhibition of AKT1 (unknown origin) assessed as remaining activity at 1 uM by Kinome scan method relative to control
RAC-alpha serine/threonine-protein kinase (Homo sapiens), sequence (P31749 whole entry): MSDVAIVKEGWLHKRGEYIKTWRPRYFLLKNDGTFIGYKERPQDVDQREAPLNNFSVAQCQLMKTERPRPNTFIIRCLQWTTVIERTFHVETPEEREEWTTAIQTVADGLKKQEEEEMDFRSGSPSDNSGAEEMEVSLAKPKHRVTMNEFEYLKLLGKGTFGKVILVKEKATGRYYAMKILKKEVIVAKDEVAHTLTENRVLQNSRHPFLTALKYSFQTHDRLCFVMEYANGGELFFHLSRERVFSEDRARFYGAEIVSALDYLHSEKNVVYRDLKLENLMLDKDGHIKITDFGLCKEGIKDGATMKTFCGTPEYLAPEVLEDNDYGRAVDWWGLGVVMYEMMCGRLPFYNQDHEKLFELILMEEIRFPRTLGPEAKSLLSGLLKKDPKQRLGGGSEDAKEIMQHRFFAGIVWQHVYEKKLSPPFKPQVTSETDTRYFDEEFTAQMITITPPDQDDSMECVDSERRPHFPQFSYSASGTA

[14] = molecular target: Cyclin-dependent kinase 8 (Homo sapiens) (UniProt P49336); assay: Inhibition of CDK8 (unknown origin) assessed as remaining activity at 1 uM by Kinome scan method relative to control
[15] = Inhibition of PI3K/AKT/mTOR signalling pathway in human RV-1 cells assessed as decrease in S6K phosphorylation at T389 residue at 2.5 uM incubated for 4 hrs by immunoblot analysis; type: cell-based
[16] = molecular target: Serine/threonine-protein kinase PAK 3 (Homo sapiens) (UniProt O75914); assay: Inhibition of PAK3 (unknown origin) assessed as remaining activity at 1 uM by Kinome scan method relative to control
Serine/threonine-protein kinase PAK 3 (Homo sapiens), sequence (O75914 whole entry, looked up): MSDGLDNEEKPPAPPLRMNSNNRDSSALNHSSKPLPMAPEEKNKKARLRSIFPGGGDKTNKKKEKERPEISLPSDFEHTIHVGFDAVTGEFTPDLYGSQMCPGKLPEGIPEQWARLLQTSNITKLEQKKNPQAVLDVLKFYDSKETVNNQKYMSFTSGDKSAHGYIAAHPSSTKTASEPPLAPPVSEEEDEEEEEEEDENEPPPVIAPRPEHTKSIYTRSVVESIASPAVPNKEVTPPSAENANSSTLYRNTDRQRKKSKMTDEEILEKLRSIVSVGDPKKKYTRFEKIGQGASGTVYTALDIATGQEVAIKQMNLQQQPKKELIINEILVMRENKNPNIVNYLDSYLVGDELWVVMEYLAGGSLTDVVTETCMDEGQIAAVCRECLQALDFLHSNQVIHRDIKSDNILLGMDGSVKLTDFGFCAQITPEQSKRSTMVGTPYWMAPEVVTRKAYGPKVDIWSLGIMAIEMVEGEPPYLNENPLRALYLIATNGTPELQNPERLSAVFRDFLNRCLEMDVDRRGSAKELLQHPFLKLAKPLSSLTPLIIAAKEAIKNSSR

[17] = tested on: Mast/stem cell growth factor receptor Kit (Homo sapiens), P10721 [A829P]; assay: Inhibition of KIT A829P mutant (unknown origin) assessed as remaining activity at 1 uM by Kinome scan method relative to control
[18] = molecular target: Cyclin-dependent kinase 5 (Homo sapiens) (UniProt Q00535); assay: Inhibition of CDK5 (unknown origin) assessed as remaining activity at 1 uM by Kinome scan method relative to control
[19] = molecular target: Serine/threonine-protein kinase 10 (Homo sapiens) (UniProt O94804); assay: Inhibition of LOK (unknown origin) assessed as remaining activity at 1 uM by Kinome scan method relative to control
[20] = tested on: BaF3; assay: Antiproliferative activity against mouse BaF3 cells expressing TEL-fused JAK1 assessed growth inhibition incubated for 2 to 5 days by CellTiter-Glo assay; type: functional; settings: time 2-5 day
[21] = molecular target: LIM domain kinase 2 (Homo sapiens) (UniProt P53671); assay: Inhibition of LIMK2 (unknown origin) assessed as remaining activity at 1 uM by Kinome scan method relative to control
[22] = molecular target: Rho-associated protein kinase 1 (Homo sapiens) (UniProt Q13464); assay: Inhibition of ROCK1 (unknown origin) assessed as remaining activity at 1 uM by Kinome scan method relative to control
[23] = molecular target: Serine/threonine-protein kinase PAK 5 (Homo sapiens) (UniProt Q9P286); assay: Inhibition of PAK7 (unknown origin) assessed as remaining activity at 1 uM by Kinome scan method relative to control
[24] = tested on: Mast/stem cell growth factor receptor Kit (Homo sapiens), P10721 [D816V]; assay: Inhibition of KIT D816V mutant (unknown origin) assessed as remaining activity at 1 uM by Kinome scan method relative to control
[25] = molecular target: Ribosomal protein S6 kinase alpha-6 (Homo sapiens) (UniProt Q9UK32); assay: Inhibition of C-terminal kinase domain RSK4 (unknown origin) assessed as remaining activity at 1 uM by Kinome scan method relative to control
[26] = tested on: RV-1; assay: Down regulation of BMX protein expression in human RV-1 cells expressing wild type BMX at 5 uM incubated for 72 hrs by western blot analysis; type: functional, cell-based
[27] = molecular target: Serine/threonine-protein kinase MAK (Homo sapiens) (UniProt P20794); assay: Inhibition of MAK (unknown origin) assessed as remaining activity at 1 uM by Kinome scan method relative to control
[28] = molecular target: Serine/threonine-protein kinase Nek4 (Homo sapiens) (UniProt P51957); assay: Inhibition of NEK4 (unknown origin) assessed as remaining activity at 1 uM by Kinome scan method relative to control
[29] = Inhibition of PI3K/AKT/mTOR signalling pathway in human RV-1 cells assessed as decrease in GSKalpha/beta phosphorylation at 2.5 uM incubated for 4 hrs by immunoblot analysis; type: cell-based
[30] = molecular target: cGMP-dependent protein kinase 1 (Homo sapiens) (UniProt Q13976); assay: Inhibition of PRKG1 (unknown origin) assessed as remaining activity at 1 uM by Kinome scan method relative to control
cGMP-dependent protein kinase 1 (Homo sapiens), sequence (Q13976 whole entry): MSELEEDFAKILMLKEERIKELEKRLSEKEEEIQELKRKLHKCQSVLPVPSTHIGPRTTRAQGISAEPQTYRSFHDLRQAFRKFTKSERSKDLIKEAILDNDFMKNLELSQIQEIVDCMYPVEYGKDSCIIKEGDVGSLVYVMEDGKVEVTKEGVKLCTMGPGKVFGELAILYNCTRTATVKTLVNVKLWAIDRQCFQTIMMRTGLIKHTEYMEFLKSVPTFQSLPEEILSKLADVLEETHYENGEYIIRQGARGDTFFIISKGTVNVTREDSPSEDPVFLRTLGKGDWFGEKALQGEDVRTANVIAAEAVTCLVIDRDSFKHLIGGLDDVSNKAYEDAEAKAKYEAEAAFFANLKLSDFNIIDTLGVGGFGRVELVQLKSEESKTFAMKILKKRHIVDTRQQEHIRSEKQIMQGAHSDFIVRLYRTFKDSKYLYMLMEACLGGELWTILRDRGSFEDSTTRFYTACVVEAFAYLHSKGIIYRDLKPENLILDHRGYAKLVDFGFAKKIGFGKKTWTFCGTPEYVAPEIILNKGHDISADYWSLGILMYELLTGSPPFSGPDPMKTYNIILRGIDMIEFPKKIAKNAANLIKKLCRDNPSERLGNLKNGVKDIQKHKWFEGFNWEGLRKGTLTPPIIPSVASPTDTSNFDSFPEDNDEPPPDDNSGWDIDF

[31] = molecular target: Serine/threonine-protein kinase mTOR (Homo sapiens) (UniProt P42345); assay: Inhibition of MTOR (unknown origin) assessed as remaining activity at 1 uM by Kinome scan method relative to control
[32] = molecular target: Myosin-IIIb (Homo sapiens) (UniProt Q8WXR4); assay: Inhibition of MYO3B (unknown origin) assessed as remaining activity at 1 uM by Kinome scan method relative to control
[33] = molecular target: Ribosomal protein S6 kinase alpha-3 (Homo sapiens) (UniProt P51812); assay: Inhibition of N-terminal kinase domain RSK2 (unknown origin) assessed as remaining activity at 1 uM by Kinome scan method relative to control

Citron Rho-interacting kinase (Homo sapiens), sequence (O14578 whole entry): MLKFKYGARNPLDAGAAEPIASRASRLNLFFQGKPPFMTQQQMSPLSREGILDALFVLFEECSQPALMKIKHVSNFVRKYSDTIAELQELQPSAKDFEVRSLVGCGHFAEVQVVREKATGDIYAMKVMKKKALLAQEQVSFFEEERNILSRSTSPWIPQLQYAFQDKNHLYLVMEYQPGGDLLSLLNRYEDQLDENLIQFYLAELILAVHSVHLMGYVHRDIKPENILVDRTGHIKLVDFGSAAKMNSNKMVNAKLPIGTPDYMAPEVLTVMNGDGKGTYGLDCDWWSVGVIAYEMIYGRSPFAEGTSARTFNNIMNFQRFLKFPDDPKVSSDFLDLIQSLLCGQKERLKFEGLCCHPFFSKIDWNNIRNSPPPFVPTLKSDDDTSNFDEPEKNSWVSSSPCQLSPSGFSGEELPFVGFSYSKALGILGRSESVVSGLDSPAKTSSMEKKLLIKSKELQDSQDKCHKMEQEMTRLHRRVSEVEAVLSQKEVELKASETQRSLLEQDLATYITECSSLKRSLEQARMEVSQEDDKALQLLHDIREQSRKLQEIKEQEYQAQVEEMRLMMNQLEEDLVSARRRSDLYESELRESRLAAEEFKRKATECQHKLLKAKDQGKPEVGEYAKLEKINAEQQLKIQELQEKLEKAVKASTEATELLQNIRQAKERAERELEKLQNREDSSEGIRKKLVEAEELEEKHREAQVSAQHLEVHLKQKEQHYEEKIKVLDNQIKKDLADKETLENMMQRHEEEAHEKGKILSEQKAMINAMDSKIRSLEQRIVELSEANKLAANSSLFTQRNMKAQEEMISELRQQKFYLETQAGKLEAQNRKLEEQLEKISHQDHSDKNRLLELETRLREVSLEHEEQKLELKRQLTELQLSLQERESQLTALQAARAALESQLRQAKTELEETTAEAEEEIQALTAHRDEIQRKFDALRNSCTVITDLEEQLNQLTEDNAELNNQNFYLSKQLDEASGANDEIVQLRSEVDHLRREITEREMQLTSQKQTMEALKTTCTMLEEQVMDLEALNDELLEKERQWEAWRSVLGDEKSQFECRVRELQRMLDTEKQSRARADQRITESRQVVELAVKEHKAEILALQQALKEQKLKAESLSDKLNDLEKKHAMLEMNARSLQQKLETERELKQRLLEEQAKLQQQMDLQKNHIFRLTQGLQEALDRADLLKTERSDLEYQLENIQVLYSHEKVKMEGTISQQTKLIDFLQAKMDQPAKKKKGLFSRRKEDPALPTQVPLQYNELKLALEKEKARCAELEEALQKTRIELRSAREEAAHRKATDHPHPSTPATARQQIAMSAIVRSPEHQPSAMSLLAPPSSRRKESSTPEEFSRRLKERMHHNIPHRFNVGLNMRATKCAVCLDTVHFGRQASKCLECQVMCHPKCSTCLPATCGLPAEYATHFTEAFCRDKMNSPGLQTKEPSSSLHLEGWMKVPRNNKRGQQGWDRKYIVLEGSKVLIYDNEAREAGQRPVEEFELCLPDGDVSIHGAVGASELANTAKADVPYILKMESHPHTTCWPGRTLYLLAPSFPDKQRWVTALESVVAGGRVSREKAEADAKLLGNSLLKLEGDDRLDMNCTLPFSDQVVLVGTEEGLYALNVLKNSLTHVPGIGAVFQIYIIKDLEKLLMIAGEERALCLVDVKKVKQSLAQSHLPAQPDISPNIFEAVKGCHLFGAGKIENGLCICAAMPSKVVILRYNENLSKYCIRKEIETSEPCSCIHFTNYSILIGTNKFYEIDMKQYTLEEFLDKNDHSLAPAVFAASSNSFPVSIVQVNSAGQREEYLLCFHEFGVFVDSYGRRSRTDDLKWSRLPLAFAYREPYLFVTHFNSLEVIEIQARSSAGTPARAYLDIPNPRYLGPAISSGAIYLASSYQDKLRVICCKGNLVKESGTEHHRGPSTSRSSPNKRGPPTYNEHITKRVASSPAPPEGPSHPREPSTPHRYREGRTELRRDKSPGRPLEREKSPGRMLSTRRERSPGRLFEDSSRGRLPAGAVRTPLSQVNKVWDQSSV

C=CC(=O)Nc1cc(-n2c(=O)ccc3cnc4ccc(-c5ccc(NS(C)(=O)=O)cc5)cc4c32)ccc1C
Activity [1]: 83%
Activity [2]: 9.1%
Activity [3]: 83%
Activity [4]: 85%
inhibition [5]: inactive
Activity [6]: 77%
GI50 [7]: 2.46 µM
Activity [8]: 75%
Activity [9]: 93%
Activity [10]: 80%
Activity [11]: 0.74
Activity [12]: 94%
Activity [13]: 12%
Activity [14]: 76%
inhibition [15]: inactive
Activity [16]: 92%
Activity [17]: 74%
Activity [18]: 88%
Activity [19]: 87%
GI50 [20]: 4.92 µM
Activity [21]: 92%
Activity [22]: 56%
Activity [23]: 98%
Activity [24]: 69%
Activity [25]: 56%
Activity [26]: Active
Activity [27]: 70%
Activity [28]: 81%
inhibition [29]: inactive
Activity [30]: 87%
Activity [31]: 45%
Activity [32]: 92%
Activity [33]: 81%
